Source: patent US20080038276A1, “INHIBITORS OF PLASMA KALLIKREIN” (Activesite Pharmaceuticals, Inc., priority 2006, published 2008)
Like-named read-outs stand apart in the source and are kept apart here.

How the values were obtained:
patients with HAE = settings: in vivo; cited from earlier work
[1] = target: T1, Human plasma kallikrein (PK) (Homo sapiens, UniProt P03952); assay: Inhibition of human plasma kallikrein amidolytic activity (H-D-Pro-Phe-Arg-pNA cleavage, A405); type: biochemical
T1 construct: purchased Haemtech Technologies (Essex Junction, Vt.)
Method: Human plasma kallikrein (PK) was obtained from Haemtech Technologies (Essex Junction, Vt.). The enzymatic activity of PK was assayed using the synthetic peptide substrate H-D-Pro-Phe-Arg-pNA (Bachem, Inc., Switzerland) with the cleavage of the substrate by the enzyme resulting in an increase in A405, measured using a Molecular Devices Vmax Kinetic Microplate Reader. The uninhibited (control) activity of PK was determined by adding 190 μl of PK solution (1 nM in 0.05 M HEPES, pH 7.5, 0.01% Triton X-100) to 10 μl of H-D-Pro-Phe-Arg-pNA (2 mM in DMSO) in individual microtiter plate wells, mixed immediately by shaking, and the rate of increase in A405 determined over 120-180 sec. In parallel, compounds of the present invention were mixed in separate wells with the synthetic substrate to attain final concentrations of between 0.01-10 μM in the final 200 μl reaction mixture, and the reaction initiated by the addition of 190 μl of the PK solution.
(§1) The highest concentration of either compound tested was 10 μM.

FXIIa = target: T2, FXIIa (Homo sapiens, UniProt P00748); assay: Specificity profile: amidolytic activity with synthetic substrate; type: biochemical; settings: highest concentration tested 10 μM
T2 sequence (P00748 373-615 limits assumed): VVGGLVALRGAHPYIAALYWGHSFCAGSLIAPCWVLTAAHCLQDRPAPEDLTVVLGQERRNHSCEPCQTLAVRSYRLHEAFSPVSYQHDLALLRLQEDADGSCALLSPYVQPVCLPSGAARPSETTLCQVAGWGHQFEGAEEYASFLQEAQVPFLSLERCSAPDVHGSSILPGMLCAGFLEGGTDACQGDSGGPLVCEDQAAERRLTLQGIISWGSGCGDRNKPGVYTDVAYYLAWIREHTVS
Method: as §1

FXIa = FXIa (Homo sapiens, UniProt P03951); assay: as above; type: biochemical; settings: highest concentration tested 10 μM
Method: as §1

FXa = FXa (Homo sapiens, UniProt P00742); assay: as above; type: biochemical; settings: highest concentration tested 10 μM
Method: as §1

Plasmin = target: T3, Plasmin (Homo sapiens, UniProt P00747); assay: as above; type: biochemical; settings: highest concentration tested 10 μM
T3 construct: agents that lead to the generation of active plasmin from plasminogen
Method: as §1

Thrombin = Thrombin (Homo sapiens, UniProt P00734); assay: as above; type: biochemical; settings: highest concentration tested 10 μM
Method: as §1

[2] = tested on: plasmin-activated coagulation in plasma; assay: Plasmin-activated coagulation of plasma (plasmin + 6.25% Actin FS), time to coagulation; parameters: species or system human; settings: for prolongs time to coagulation: normal plasma, 200 nM plasmin
Method: In the clotting paradigm utilized in Example 3, plasma is mixed 1:1 with commercially formulated Actin FS. Thus, 50% (v/v) Actin FS is the maximum amount of activator that can be added while maintaining the amount of plasma constant at 50% of the incubation mixture. Since the clotting time in normal plasma is dependent on the amount of Actin FS present in the incubation mixture, these conditions would by definition lead to the shortest time to coagulation mediated by the intrinsic pathway in this paradigm. Lowering the amount of contact activator leads to a decrease in the amount of PK activated, thus reducing the amount of thrombin generated and slowing the time to coagulation (data not shown). Therefore, in order to determine whether addition of exogenous plasmin (mimicking a fibrinolytic setting) can shorten time to coagulation, the amount of Actin FS reagent added to the plasma (kept constant at 50% of the final incubation mixture) was lowered so as to attain 6.25% (final v/v).
This provides direct evidence that plasmin can have a thrombogenic effect when added to plasma in the presence of a small amount of contact activator.
The role for PK was established by evaluating deficiencies in PK, as well as by using two specific inhibitors of the enzymes. In order to determine whether blocking PK via a specific monoclonal antibody (MAb) would also be effective in inhibiting coagulation in either of the two paradigms described here, and thus provide additional validation for the invention, MAb 13G11, which has been previously characterized as being specific for PK (Veloso et al, (1987) Blood, 70, 1053-1062), was tested in each of the coagulation paradigms described in Examples 2 and 3. MAb 13G11 (obtained from GeneTex, San Antonio, Tex.) was added at a final concentration of 0.036 mg/ml in the 50% plasma—50% activator mix in each paradigm. This calculates to an approximately 2-fold molar excess over the amount of PK that would be present in the plasma—activator mixture, based on the literature reference of Veloso et al, (1987), Blood, 70, 1053-1062. Control samples were treated with 0.036 mg/ml of an isotype-matched control IgG1 (also obtained from GeneTex). When plasma was activated using 50% Actin FS (FIG. 5), MAb 13G11 prolonged time to coagulation by 100% (45% of the maximal effect obtained with PK-deficient plasma), and, when plasma was activated using 200 nM plasmin+6.25% Actin FS (FIG. 6), prolonged time to coagulation by 32% (40% of the maximal effect obtained with PK-deficient plasma).

rat models of arthritis = settings: in vivo; cited from earlier work
mouse model of MCAO = settings: in vivo; cited from earlier work
[3] = tested on: LPS or bacterial induced sepsis in animals; settings: in vivo; cited from earlier work
sepsis patients = settings: in vivo; cited from earlier work
[4] = apparent inhibition constant, 1 nM PK, pH 7.5, read-out: PK Kiapp
[5] = purified human PK, highest concentration tested 10 μM, read-out: Ki PK

T1 sequence (P03952 391-638 limits assumed): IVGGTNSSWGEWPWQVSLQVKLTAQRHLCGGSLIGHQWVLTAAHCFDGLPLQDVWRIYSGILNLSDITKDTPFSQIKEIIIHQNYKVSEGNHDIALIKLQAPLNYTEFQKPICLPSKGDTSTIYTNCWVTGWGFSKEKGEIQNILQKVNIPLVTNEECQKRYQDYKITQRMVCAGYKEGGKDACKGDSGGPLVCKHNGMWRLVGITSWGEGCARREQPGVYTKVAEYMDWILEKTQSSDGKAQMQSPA
T1 sequence (P03952 20-390 partner limits assumed): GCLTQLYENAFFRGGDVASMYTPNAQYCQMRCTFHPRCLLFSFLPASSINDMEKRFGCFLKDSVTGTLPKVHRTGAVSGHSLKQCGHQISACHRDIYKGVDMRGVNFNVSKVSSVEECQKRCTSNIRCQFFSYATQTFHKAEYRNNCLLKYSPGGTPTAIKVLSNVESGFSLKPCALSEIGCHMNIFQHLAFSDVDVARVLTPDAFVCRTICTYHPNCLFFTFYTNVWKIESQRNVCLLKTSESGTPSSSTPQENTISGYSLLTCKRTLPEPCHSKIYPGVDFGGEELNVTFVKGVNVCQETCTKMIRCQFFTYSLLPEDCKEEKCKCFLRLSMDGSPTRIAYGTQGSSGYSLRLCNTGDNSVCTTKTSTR
Sequence of FXa (P00742 235-488 limits assumed): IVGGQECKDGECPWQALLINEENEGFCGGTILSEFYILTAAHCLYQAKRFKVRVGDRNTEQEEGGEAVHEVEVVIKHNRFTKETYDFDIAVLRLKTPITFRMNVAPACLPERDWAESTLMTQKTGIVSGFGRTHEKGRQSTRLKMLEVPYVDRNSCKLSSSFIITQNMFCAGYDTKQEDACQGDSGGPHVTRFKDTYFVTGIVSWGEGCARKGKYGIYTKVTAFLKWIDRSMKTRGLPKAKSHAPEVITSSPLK
Sequence of FXa (P00742 41-179 partner limits assumed): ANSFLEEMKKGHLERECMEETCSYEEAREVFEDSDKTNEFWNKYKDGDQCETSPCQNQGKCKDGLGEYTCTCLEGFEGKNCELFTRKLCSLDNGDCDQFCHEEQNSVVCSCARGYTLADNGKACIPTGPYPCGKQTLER
T3 sequence (P00747 581-810 limits assumed, species assumed): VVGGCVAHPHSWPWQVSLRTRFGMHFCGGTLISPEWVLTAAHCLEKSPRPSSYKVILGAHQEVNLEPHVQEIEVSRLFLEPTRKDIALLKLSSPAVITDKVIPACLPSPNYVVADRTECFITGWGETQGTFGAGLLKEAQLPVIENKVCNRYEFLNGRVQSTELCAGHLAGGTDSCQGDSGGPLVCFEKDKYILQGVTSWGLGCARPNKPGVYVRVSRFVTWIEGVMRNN
T3 sequence (P00747 97-580 partner limits assumed, species assumed): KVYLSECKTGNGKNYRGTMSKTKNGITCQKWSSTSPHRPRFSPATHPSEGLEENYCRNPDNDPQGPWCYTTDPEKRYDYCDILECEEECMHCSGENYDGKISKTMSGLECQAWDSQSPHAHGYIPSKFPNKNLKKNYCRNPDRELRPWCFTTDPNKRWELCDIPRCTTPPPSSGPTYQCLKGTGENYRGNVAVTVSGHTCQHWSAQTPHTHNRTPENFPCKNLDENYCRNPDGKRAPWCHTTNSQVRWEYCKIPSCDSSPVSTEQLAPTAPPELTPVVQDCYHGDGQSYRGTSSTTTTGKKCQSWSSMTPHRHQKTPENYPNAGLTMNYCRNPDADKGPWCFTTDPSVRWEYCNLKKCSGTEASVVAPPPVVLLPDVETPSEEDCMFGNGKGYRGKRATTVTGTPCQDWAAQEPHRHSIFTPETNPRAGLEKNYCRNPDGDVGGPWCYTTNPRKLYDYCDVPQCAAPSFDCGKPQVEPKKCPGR
Sequence of FXIa (P03951 388-625 limits assumed): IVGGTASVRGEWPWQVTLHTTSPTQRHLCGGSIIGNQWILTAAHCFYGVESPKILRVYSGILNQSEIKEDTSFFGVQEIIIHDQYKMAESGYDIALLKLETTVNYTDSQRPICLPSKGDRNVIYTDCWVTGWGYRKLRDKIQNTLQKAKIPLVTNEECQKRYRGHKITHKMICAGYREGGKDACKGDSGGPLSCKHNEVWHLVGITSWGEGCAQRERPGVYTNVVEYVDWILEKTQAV
Sequence of FXIa (P03951 19-387 partner limits assumed): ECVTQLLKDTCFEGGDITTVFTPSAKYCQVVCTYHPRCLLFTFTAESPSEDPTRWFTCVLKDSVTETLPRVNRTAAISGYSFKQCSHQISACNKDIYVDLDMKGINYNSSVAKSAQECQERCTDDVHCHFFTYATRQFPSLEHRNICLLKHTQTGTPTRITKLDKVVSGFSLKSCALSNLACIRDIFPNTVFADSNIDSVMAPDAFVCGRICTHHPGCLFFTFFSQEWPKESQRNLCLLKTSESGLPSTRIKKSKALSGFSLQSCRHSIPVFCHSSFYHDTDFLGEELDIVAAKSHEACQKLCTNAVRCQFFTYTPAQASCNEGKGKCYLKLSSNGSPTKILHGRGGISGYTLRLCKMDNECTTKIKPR

Row | Molecule | Ki [1, 4] | Ki [1, 5] | Ki (FXIIa) | Ki (FXIa) | Ki (FXa) | Ki (Plasmin) | Ki (Thrombin) | other results
1 | NC(N)=NCCC[C@@H](N)C(=O)N[C@@H](CCCN=C(N)N)C(=O)N1CCC[C@H]1C(=O)N1C[C@H](O)C[C@H]1C(=O)NCC(=O)N[C@@H](Cc1cccs1)C(=O)N[C@@H](CO)C(=O)N1Cc2ccccc2C[C@@H]1C(=O)N1[C@H](C(=O)N[C@@H](CCCN=C(N)N)C(=O)O)C[C@@H]2CCCC[C@@H]21 [Icatibant] |  |  |  |  |  |  |  | treating HAE (patients with HAE): effective
2 | Cc1cc(C(=O)NCc2ccc(C(=N)N)cc2)c(C)n1Cc1ccncc1 [ASP-465, 2,5-Dimethyl-1-pyridin-4-ylmethyl-1H-pyrrole-3-carboxylic acid 4-carbamimidoyl-benzylamide] | 0.08 µM | 0.03 µM | > 10 µM | > 10 µM | > 10 µM | > 10 µM | > 10 µM | potency (Ki) towards PK relative to ASP-440 ([1]; ratio of Ki values): 3 fold; block of the plasmin-induced shortening of time to coagulation attributable to PK ([2]; 10 μM): almost completely blocks; prolongs time to coagulation ([2]; compound 3.3 or 10 μM): 36-75%; potency towards inhibiting plasmin-activated coagulation relative to ASP-440 ([2]; same prolongation at 3.3 μM as ASP-440 at 10 μM): 3 fold
3 | N=C(N)c1ccc(CNC(=O)c2cnn(Cc3ccccc3)c2)cc1 [ASP-440, 1-Benzyl-1H-pyrazole-4-carboxylic acid 4-carbamimidoyl-benzylamide] | 0.31 µM | 0.09 µM | > 10 µM | > 10 µM | > 10 µM | > 10 µM | > 10 µM | prolongs time to coagulation ([2]; compound 10 μM): 36%
4 | Cl.NCC1CCC(C(=O)N[C@@H](Cc2ccccc2)C(=O)Nc2ccc(CC(=O)O)cc2)CC1 (stereo partly drawn) [PKSI-527] |  |  |  |  |  |  |  | joint swelling (rat models of arthritis): reduce
5 | C1-INH: a physiological inhibitor (protein, UniProt P05155 23-500, looked up) Plasma protease C1 inhibitor: NPNATSSSSQDPESLQDRGEGKVATTVISKMLFVEPILEVSSLPTTNSTTNSATKITANTTDEPTTQPTTEPTTQPTIQPTQPTTQLPTDSPTQPTTGSFCPGPVTLCSDLESHSTEAVLGDALVDFSLKLYHAFSAMKKVETNMAFSPFSIASLLTQVLLGAGENTKTNLESILSYPKDFTCVHQALKGFTTKGVTSVSQIFHSPDLAIRDTFVNASRTLYSSSPRVLSNNSDANLELINTWVAKNTNNKISRLLDSLPSDTRLVLLNAIYLSAKWKTTFDPKKTRMEPFHFKNSVIKVPMMNSKKYPVAHFIDQTLKAKVGQLQLSHNLSLVILVPQNLKHRLEDMEQALSPSVFKAIMEKLEMSKFQPTLLTLPRIKVTTSQDMLSIMEKLEFFDFSYDLNLCGLTEDPDLQVSAMQHQTVLELTETGVEAAAASAISVARTLLVFEVQQPFLFVLWDQQHKFPVFMGRVYDPRA |  |  |  |  |  |  |  | infarct size (mouse model of MCAO): reduced; vascular permeability in multiple organs and lesions [3]: reduce; clinical outcome in sepsis patients (sepsis patients): Clinical improvement
